From patent US20200341000A1, “METHOD OF SCREENING COMPOUNDS FOR TREATING CNS DISORDERS” (SAGE THERAPEUTICS, INC., priority 2017, published 2020)
Like-named read-outs stand apart in the source and are kept apart here. Marks after values point to notes of the source that are not given here.

Key:
[1] = system: sIPSCs in dentate gyms granule cells (DGGCs); experiment: Acute (allosteric) modulation of sIPSCs in DGGCs of hippocampal slices; type: cell-based, mice; conditions: for mean sIPSC amplitude before versus during exposure / mean sIPSC decay time in the presence of compound: 100 nM; for sIPSC Amplitude / sIPSC Decay / sIPSC Frequency: 100 nM acute exposure, n = 5 to 7 neurons
Method: Brain slices were prepared from 3- to 5-week-old male C57 mice. Mice were anesthetized with isoflurane, decapitated, and brains were rapidly removed and submerged in ice-cold cutting solution containing (mM): 126 NaCl, 2.5 KCl, 0.5 CaCl2, 2 MgCl2, 26 NaHCO3, 1.25 NaH2PO4, 10 glucose, 1.5 sodium pyruvate, and 3 kynurenic acid. Coronal 310 μm thick slices were cut with the vibratome VT1000S (Leica Microsystems, St Louis, Mo., USA). The slices were then transferred into incubation chamber filled with prewarmed (31-32° C.) oxygenated artificial cerebro-spinal fluid (ACSF) of the following composition (in mM): 126 NaCl, 2.5 KCl, 2 CaCl2, 2 MgCl2, 26 NaHCO3, 1.25 NaH2PO4, 10 glucose, 1.5 sodium pyruvate, 1 glutamine, 3 kynurenic acid and 0.005 GABA bubbled with 95% O2-5% CO2. Slices were allowed to recover at 32° C. for at least 1 hr before recording. Exogenous GABA was added in an attempt to standardize ambient GABA in the slice and provide an agonist source for newly inserted extrasynaptic GABAARs.
After recovery, a single slice was transferred to a submerged, dual perfusion recording chamber (Warner Instruments, Hamden, Conn., USA) on the stage of an upright microscope (Nikon FN-1) with a 40× water immersion objective equipped with DIC/IR optics. Slices were maintained at 32° C. and gravity-superfused with ACSF solution throughout experimentation and perfused at rate of 2 ml/min with oxygenated (O2/CO2 95/5%) ACSF.
Whole-cell currents were recorded from the dentate gyms granule cells (DGGCs) in 310-μm-thick coronal hippocampal slices. Patch pipettes (5-7MΩ) were pulled from borosilicate glass (World Precision Instruments) and filled with intracellular solution of the composition (in mM) as follows: 140 CsCl, 1 MgCl2, 0.1 EGTA, 10 HEPES, 2 Mg-ATP, 4 NaCl and 0.3 Na-GTP (pH=7.2 with CsOH). A 5 min period for stabilization after obtaining the whole-cell recording conformation (holding potential of −60 mV) was allowed before currents were recorded using an Axopatch 200B amplifier (Molecular Devices), low-pass filtered at 2 kHz, digitized at 20 kHz (Digidata 1440A; Molecular Devices), and stored for offline analysis.
For tonic current measurements, an all-points histogram was plotted for a 10 s period before and during 100 μM picrotoxin application, once the response reached a plateau level. Recordings with unstable baselines were discarded. Fitting the histogram with a Gaussian distribution gave the mean baseline current amplitude and the difference between the amplitudes before and during picrotoxin was considered to be the tonic current. The negative section of the all-points histogram which corresponds to the inward IPSCs was not fitted with a Gaussian distribution (Kretschmannova et al., 2013; Nusser and Mody, 2002). Series resistance and whole-cell capacitance were continually monitored and compensated throughout the course of the experiment. Recordings were eliminated from data analysis if series resistance increased by >20%. Spontaneous inhibitory post-synaptic currents (sIPSCs) were analyzed using the mini-analysis software (version 5.6.4; Synaptosoft, Decatur, Ga.). Minimum threshold detection was set to 3 times the value of baseline noise signal. To assess sIPSC kinetics, the recording trace was visually inspected and only events with a stable baseline, sharp rising phase, and single peak were used to negate artifacts due to event summation. Only recordings with a minimum of 200 events fitting these criteria were analyzed. sIPSCs amplitude, and frequency from each experimental condition was pooled and expressed as mean±SEM. To measure sIPSC decay, 100 consecutive events were averaged and the decay was fitted to a double exponential and the weighted decay constant (tw) was determined. Statistical analysis was performed by using Student t-test (paired and unpaired where appropriate), where p<0.05 is considered significant.

[2] = system: GABA receptor trafficking; experiment: GABA receptor trafficking measured by GABAergic current density (FIG. 14); type: cell-based; conditions: measured by the GABAergic current density
Source text: As shown in above examples, not all neurosteroids can modulate GABA receptor trafficking.

α4β3δ GABAA receptors = target: T1, α4β3δ GABAA receptors (Homo sapiens, UniProt O14764+P28472+P48169); experiment: Whole-cell patch clamp, potentiation of GABA EC20 currents at recombinant extrasynaptic-type receptors (CHO cells); type: cell-based
T1 construct: expressed in transfected cells; host or cells: CHO cells (transient transfection, Lipofectamine)
T1 sequence (P48169 36-554): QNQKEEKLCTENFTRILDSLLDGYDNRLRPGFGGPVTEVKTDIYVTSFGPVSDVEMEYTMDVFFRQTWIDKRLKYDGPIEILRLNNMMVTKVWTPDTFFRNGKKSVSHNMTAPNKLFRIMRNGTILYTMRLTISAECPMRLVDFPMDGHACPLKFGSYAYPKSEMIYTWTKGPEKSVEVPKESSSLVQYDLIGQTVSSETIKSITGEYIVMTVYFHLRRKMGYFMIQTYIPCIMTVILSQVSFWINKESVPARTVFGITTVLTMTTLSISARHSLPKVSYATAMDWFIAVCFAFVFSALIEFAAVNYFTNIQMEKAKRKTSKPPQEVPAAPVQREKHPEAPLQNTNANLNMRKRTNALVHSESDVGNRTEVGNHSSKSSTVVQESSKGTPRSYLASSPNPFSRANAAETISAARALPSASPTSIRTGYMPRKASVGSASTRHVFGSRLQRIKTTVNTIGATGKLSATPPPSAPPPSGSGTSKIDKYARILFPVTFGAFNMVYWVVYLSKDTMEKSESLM
T1 sequence (P28472 26-473): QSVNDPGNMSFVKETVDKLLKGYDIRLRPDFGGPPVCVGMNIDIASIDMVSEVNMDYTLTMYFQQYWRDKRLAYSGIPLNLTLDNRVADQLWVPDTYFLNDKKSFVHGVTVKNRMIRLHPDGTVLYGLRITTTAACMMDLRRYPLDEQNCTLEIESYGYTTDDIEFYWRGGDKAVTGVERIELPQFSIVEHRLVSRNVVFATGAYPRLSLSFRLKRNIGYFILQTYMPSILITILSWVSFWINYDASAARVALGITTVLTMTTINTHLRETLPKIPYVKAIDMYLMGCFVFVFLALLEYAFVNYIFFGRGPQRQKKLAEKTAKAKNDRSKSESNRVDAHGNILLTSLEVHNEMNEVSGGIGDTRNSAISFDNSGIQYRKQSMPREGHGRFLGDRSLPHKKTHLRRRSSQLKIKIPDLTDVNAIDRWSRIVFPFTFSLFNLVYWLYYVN
T1 sequence (O14764 25-452): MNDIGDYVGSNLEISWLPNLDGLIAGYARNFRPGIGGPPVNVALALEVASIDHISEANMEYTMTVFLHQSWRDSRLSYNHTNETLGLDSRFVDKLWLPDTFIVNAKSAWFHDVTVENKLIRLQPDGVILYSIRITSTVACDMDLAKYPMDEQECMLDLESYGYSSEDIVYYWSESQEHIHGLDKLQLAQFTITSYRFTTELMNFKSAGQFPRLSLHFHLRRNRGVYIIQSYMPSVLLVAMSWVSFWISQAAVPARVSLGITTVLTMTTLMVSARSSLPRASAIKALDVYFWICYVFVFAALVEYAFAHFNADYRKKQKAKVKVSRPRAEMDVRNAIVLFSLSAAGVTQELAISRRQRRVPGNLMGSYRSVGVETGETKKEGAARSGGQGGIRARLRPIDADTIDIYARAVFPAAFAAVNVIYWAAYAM
Method: (§1) Cellular electrophysiology was used to measure the pharmacological properties of ALLO, ganaxolone and SGE-516 in heterologous cell systems. Compounds were tested for their ability to affect GABA mediated currents at a submaximal agonist dose (GABA EC20=2 μM).
(§2) LTK cells were stably transfected with the α1β2γ2 subunits of the GABA receptor and CHO cells are transiently transfected with the α4β3γ subunits via the Lipofecatamine method. Cells were passaged at a confluence of about 50-80% and then seeded onto 35 mm sterile culture dishes containing 2 ml culture complete medium without antibiotics or antimycotics. Cells were cultivated at a density that enabled the recording of single cells without visible connections to other cells.
(§3) Whole-cell currents were measured with HEKA EPC-10 amplifiers using PatchMaster software. Bath solution for all experiments contained (in mM): NaCl 137, KCl 4, CaCl2 1.8, MgCl2 1, HEPES 10, D-Glucose 10, pH 7.4 with NaOH. Intracellular (pipette) solution contained (in mM): KCl 130, MgCl2 1, Mg-ATP 5, HEPES 10, EGTA 5, pH 7.2 with KOH. During experiments, cells and solutions were maintained at room temperature (19° C.-30° C.). For manual patchclamp recordings, cell culture dishes were placed on the dish holder of the microscope and continuously perfused (1 ml/min) with bath solution. After formation of a Gigaohm seal between the patch electrode and the cell (pipette resistance range: 2.5 MΩ-6.0MΩ; seal resistance range: >1 GΩ) the cell membrane across the pipette tip was ruptured to assure electrical access to the cell interior (whole-cell patch configuration).
(§4) Cells were voltage-clamped at a holding potential of −80 mV. GABAA receptors were activated by 2 μM GABA and compounds were sequentially applied at increasing concentrations for 30 s prior to a 2 s application of GABA. GABA and compounds were applied to cells via the Dynaflow perfusion system (Cellectricon, Sweden). Test compounds were dissolved in DMSO to form 10 mM stock solution and serially diluted to 0.01, 0.1, 1, and 10 μM in bath solution. […] All concentrations of test compound were tested on each cell. The relative percentage potentiation was defined as the peak amplitude in response to GABA EC20 in the presence of test compound divided by the peak amplitude in response to GABA EC20 alone, multiplied by 100.
(§5) ALLO and ganaxolone are known PAMs of both synaptic and extrasynaptic GABAAR-mediated currents. […] The α1β2γ2 or α4β3δ subunit combinations were chosen as representatives of typical synaptic and extrasynaptic GABAA receptors respectively.

α1β2γ2 GABAA receptors = target: T2, α1β2γ2 GABAA receptors (Homo sapiens, UniProt P14867+P18507+P47870); experiment: Whole-cell patch clamp, potentiation of GABA EC20 currents at recombinant synaptic-type receptors (LTK cells); type: cell-based; conditions: n = 3
T2 construct: expressed in transfected cells
T2 sequence (P14867 28-456): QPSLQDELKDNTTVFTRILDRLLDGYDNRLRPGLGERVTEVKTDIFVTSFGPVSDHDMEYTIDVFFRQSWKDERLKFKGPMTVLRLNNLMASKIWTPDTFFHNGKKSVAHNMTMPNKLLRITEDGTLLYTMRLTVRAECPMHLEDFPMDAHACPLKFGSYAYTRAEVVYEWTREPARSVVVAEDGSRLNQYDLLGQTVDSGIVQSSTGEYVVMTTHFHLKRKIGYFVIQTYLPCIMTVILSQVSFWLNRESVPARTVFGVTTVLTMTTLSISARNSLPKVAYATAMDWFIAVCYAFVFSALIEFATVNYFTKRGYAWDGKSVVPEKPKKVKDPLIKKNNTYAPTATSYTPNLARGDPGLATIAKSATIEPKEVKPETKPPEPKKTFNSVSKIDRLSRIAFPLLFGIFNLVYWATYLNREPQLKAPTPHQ
T2 sequence (P47870 25-512 limits assumed): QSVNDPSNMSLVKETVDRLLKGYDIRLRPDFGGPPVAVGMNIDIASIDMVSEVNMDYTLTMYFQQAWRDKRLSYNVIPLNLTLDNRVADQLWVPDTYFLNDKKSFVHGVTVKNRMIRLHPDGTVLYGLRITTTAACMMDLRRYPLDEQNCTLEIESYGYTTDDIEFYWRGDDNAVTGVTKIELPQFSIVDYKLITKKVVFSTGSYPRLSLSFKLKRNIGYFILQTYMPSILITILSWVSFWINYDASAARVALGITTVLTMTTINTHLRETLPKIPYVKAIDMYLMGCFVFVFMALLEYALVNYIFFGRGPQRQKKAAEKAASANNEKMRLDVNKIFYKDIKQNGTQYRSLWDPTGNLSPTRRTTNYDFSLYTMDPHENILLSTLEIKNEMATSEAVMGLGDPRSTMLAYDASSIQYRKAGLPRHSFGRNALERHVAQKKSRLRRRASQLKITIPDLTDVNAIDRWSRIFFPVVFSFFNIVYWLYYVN
T2 sequence (P18507 40-475): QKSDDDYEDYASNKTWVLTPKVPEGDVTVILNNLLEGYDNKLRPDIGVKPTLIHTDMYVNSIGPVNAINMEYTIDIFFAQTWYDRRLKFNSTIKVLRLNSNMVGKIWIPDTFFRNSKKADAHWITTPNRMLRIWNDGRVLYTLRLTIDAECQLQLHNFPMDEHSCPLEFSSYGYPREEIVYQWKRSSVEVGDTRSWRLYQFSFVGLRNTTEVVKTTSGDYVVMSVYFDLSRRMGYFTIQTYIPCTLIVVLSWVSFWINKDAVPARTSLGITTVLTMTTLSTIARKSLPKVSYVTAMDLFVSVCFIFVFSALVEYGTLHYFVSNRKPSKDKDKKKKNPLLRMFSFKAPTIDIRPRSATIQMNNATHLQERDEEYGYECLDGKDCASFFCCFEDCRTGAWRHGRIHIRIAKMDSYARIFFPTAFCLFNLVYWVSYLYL
Method: as §1, §2, §3, §4, §5

[3] = relative percentage potentiation of GABA EC20 peak current, n = 3
[4] = relative percentage potentiation of GABA EC20 peak current

Row | SMILES | mean sIPSC amplitude before versus during exposure [1] | mean sIPSC decay time in the presence of compound [1] | sIPSC Amplitude [1] [pA] | sIPSC Decay [1] | sIPSC Frequency [1] [Hz] | modulation of GABA receptor trafficking [2] | EC50 (α4β3δ GABAA receptors) [nM] | Emax (α4β3δ GABAA receptors; CHO, relative percentage potentiation of GABA EC20 peak current, n = 3, read-out: Emax ± S.E.M., α4β3δ) [%] | Emax ± S.E.M., α4β3δ (α4β3δ GABAA receptors; [3]) [%] | EC50 (α1β2γ2 GABAA receptors; EC50, potentiation of GABA current, α1β2γ2, GABA EC20 (2 μM)) [nM] | Emax (α1β2γ2 GABAA receptors; LTK, relative percentage potentiation of GABA EC20 peak current, read-out: Emax ± S.E.M., α1β2γ2) [%] | Emax ± S.E.M., α1β2γ2 (α1β2γ2 GABAA receptors; [4]) [%] | pEC50 ± S.E.M., α4β3δ (α4β3δ GABAA receptors; GABA EC20 (2 μM), n = 3) | EC50 (α4β3δ GABAA receptors; GABA EC20 (2 μM), n = 3, read-out: EC50, potentiation of GABA current, α4β3δ) [nM] | pEC50 ± S.E.M., α1β2γ2 (α1β2γ2 GABAA receptors; GABA EC20 (2 μM)) | EC50 (α1β2γ2 GABAA receptors; GABA EC20 (2 μM), read-out: EC50, potentiation of GABA current, α1β2γ2) [nM]
1 | CC(=O)[C@H]1CC[C@H]2[C@@H]3CC[C@H]4C[C@H](O)CC[C@]4(C)[C@H]3CC[C@]12C [ALLO, Allopregnanolone] | no significant difference | significantly increased | 59.1 ± 0.6 | 19.2 ± 1.3^a ms | 3.4 ± 1.0 | modulated GABA receptor trafficking | 57 | 426 | 426 ± 42 | 115 | 229 | 229 ± 19 |  |  |  | 
2 | C[C@@]1(O)CC[C@H]2[C@H](CC[C@@H]3[C@@H]2CC[C@]2(C)[C@@H](C(=O)Cn4nccn4)CC[C@@H]32)C1 [SGE-516] | no significant difference | significantly increased | 52.9 ± 0.7 | 15.1 ± 0.8^b ms | 4.6 ± 0.6 | modulated GABA receptor trafficking |  |  | 505 ± 19 |  |  | 219 | 6.7 ± 0.1 | 193 | 7.2 ± 0.3 | 61
